Results reported in ChEMBL document CHEMBL4665775, “Half-life extension of peptidic APJ agonists by N-terminal lipid conjugation” (Bioorg Med Chem Lett, 2020).

Experiments:
[1] = Tmax in Sprague-Dawley rat at 0.5 mg/kg, sc administered as single dose and measured up to 48 hrs; format: ADME, organism-based; details: in vivo
[2] = Volume of distribution at steady state in Sprague-Dawley rat at 0.1 mg/kg, iv administered as single dose and measured up to 48 hrs; format: ADME, organism-based; details: in vivo, read-out: Vdss
[3] = Stability in rat plasma assessed as compound remaining at 4 hrs; format: ADME, cell-free; details: read-out: Stabilty
[4] = Half life in Sprague-Dawley rat at 0.5 mg/kg, sc administered as single dose and measured up to 48 hrs; format: ADME, organism-based; details: in vivo
[5] = Unbound Cmax in Sprague-Dawley rat at 0.5 mg/kg, sc administered as single dose and measured up to 48 hrs; format: ADME, organism-based; details: in vivo
Apelin receptor = molecular target: T1, Apelin receptor (Rattus norvegicus, UniProt Q9JHG3); experiment: Agonist activity at rat APJ receptor stably expressed in CHO cell membranes in presence of [35S]GTPgammaS by scintillation proximity assay; format: functional
T1 sequence (Q9JHG3 whole entry): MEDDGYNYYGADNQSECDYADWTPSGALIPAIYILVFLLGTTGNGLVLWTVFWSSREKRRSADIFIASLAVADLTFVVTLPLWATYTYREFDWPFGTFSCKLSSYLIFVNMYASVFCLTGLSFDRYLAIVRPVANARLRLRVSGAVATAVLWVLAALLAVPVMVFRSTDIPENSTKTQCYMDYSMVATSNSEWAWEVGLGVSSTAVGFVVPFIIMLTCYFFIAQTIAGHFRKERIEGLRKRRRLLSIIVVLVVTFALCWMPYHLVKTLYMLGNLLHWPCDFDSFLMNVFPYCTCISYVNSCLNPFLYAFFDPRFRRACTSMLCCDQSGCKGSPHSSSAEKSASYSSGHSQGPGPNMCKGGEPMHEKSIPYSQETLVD

[6] = Stability in rat liver S9 fraction assessed as compound remaining at 4 hrs; format: ADME, subcellular; details: read-out: Stabilty
[7] = Plasma protein binding in rat assessed as unbound fraction by LC-MS/MS analysis; format: ADME, cell-free
[8] = AUC (0 to t) in Sprague-Dawley rat at 0.5 mg/kg, sc administered as single dose and measured up to 48 hrs; format: ADME, organism-based; design: route subcutaneous, dose 0.5 mg/kg, time <=48; details: in vivo
[9] = Stability in rat Kidney S9 fraction assessed as compound remaining at 4 hrs; format: ADME, subcellular; details: read-out: Stabilty
[10] = Bioavailability in Sprague-Dawley rat at 0.5 mg/kg, sc administered as single dose and measured up to 48 hrs; format: ADME, organism-based; details: in vivo
[11] = Unbound clearance in Sprague-Dawley rat at 0.1 mg/kg, iv administered as single dose and measured up to 48 hrs; format: ADME, organism-based; details: in vivo
[12] = Half life in Sprague-Dawley rat at 0.1 mg/kg, iv administered as single dose and measured up to 48 hrs; format: ADME, organism-based; details: in vivo
[13] = Clearance in Sprague-Dawley rat at 0.1 mg/kg, iv administered as single dose and measured up to 48 hrs; format: ADME, organism-based; details: in vivo
[14] = AUC (0 to t) in Sprague-Dawley rat at 0.1 mg/kg, iv administered as single dose and measured up 48 hrs; format: ADME, organism-based; design: dose 0.1 mg/kg, time <=48; details: in vivo

| SMILES | Tmax [1] | Vd [2] | remaining at 4 h [3] | half-life [4] | fCmax [5] | EC50 (Apelin receptor) | remaining at 4 h [6] | fraction unbound [7] | AUC(0-t) at 48 h [8] | remaining at 4 h [9] | bioavailability [10] | CL free [11] | half-life [12] | clearance [13] | AUC(0-t) at 48 h [14] |
| --- | --- | --- | --- | --- | --- | --- | --- | --- | --- | --- | --- | --- | --- | --- | --- |
| CC(C)C[C@@H](C(=O)N[C@@H](CO)C(=O)N[C@@H](Cc1c[nH]cn1)C(=O)N[C@@H](CCCNC(=N)N)C(=O)NCC(=O)N1[C@H](C(=O)N[C@@H](Cc2ccc(I)cc2)C(=O)N2CCC[C@H]2C(=O)N[C@H](Cc2ccc(-c3ccccc3)cc2)C(=O)O)C[C@@H]2CCCC[C@@H]21)N(C)C(=O)[C@@H](CCCNC(=N)N)NC(=O)[C@@H]1CCCN1C(=O)[C@H](CCCCNC(=N)N)NC(=O)[C@H](CCC(N)=O)NC(=O)[C@@H](CCCNC(=N)N)NC(=O)[C@H](CCCCNC(=N)N)NC(=O)COCCOCCNC(=O)COCCOCCNC(=O)CC[C@H](NC(=O)CCCCCCCCCCCCCCCCC(=O)O)C(=O)O | 24 h | 0.165 L/kg | > 90% | > 24 h | 0.33 nM | 117 nM | 85% | 0.0013 | 9.58 µM·h | 86% | > 36% | 85 mL/min/kg | 19.7 h | 0.11 mL/min/kg | 4.45 µM·h |
| CCCCCCCCCCCCC(=O)N[C@@H](CCC(=O)NCCOCCOCC(=O)NCCOCCOCC(=O)N[C@@H](CCCCNC(=N)N)C(=O)N[C@H](CCCNC(=N)N)C(=O)N[C@@H](CCC(N)=O)C(=O)N[C@@H](CCCCNC(=N)N)C(=O)N1CCC[C@H]1C(=O)N[C@H](CCCNC(=N)N)C(=O)N(C)[C@@H](CC(C)C)C(=O)N[C@@H](CO)C(=O)N[C@@H](Cc1c[nH]cn1)C(=O)N[C@@H](CCCCN)C(=O)NCC(=O)N1[C@H](C(=O)N[C@@H](Cc2ccc(I)cc2)C(=O)N2CCC[C@H]2C(=O)N[C@H](Cc2ccc(-c3ccccc3)cc2)C(=O)O)C[C@@H]2CCCC[C@@H]21)C(=O)O | 6 h | 0.231 L/kg | > 90% | 10.2 h | 0.06 nM | 6.22 nM | 45% | 0.0022 | 0.349 µM·h | 86% | 33% | 1000 mL/min/kg | 3.4 h | 2.18 mL/min/kg | 0.269 µM·h |
| CCCCCCCCCCCCCCCCC(=O)N[C@@H](CCC(=O)NCCOCCOCC(=O)NCCOCCOCC(=O)N[C@@H](CCCCNC(=N)N)C(=O)N[C@H](CCCNC(=N)N)C(=O)N[C@@H](CCC(N)=O)C(=O)N[C@@H](CCCCNC(=N)N)C(=O)N1CCC[C@H]1C(=O)N[C@H](CCCNC(=N)N)C(=O)N(C)[C@@H](CC(C)C)C(=O)N[C@@H](CO)C(=O)N[C@@H](Cc1c[nH]cn1)C(=O)N[C@@H](CCCCN)C(=O)NCC(=O)N1[C@H](C(=O)N[C@@H](Cc2ccc(I)cc2)C(=O)N2CCC[C@H]2C(=O)N[C@H](Cc2ccc(-c3ccccc3)cc2)C(=O)O)C[C@@H]2CCCC[C@@H]21)C(=O)O | 12 h | 0.092 L/kg | 79% | 10.3 h | 0.27 nM | 7.42 nM | 68% | 0.0064 | 0.753 µM·h | 83% | 36% | 200 mL/min/kg | 2.18 h | 1.23 mL/min/kg | 0.465 µM·h |
| CCCCCC(=O)N[C@@H](CCC(=O)NCCOCCOCC(=O)NCCOCCOCC(=O)N[C@@H](CCCCNC(=N)N)C(=O)N[C@H](CCCNC(=N)N)C(=O)N[C@@H](CCC(N)=O)C(=O)N[C@@H](CCCCNC(=N)N)C(=O)N1CCC[C@H]1C(=O)N[C@H](CCCNC(=N)N)C(=O)N(C)[C@@H](CC(C)C)C(=O)N[C@@H](CO)C(=O)N[C@@H](Cc1c[nH]cn1)C(=O)N[C@@H](CCCCN)C(=O)NCC(=O)N1[C@H](C(=O)N[C@@H](Cc2ccc(I)cc2)C(=O)N2CCC[C@H]2C(=O)N[C@H](Cc2ccc(-c3ccccc3)cc2)C(=O)O)C[C@@H]2CCCC[C@@H]21)C(=O)O | 4 h | 0.203 L/kg | – | 2.6 h | 0.37 nM | 2.31 nM | – | 0.0034 | 1.05 µM·h | – | 56% | 483 mL/min/kg | 2.31 h | 1.64 mL/min/kg | 0.372 µM·h |
| CCCCCCCCCCCCCCC(=O)N[C@@H](CCC(=O)NCCOCCOCC(=O)NCCOCCOCC(=O)N[C@@H](CCCCNC(=N)N)C(=O)N[C@H](CCCNC(=N)N)C(=O)N[C@@H](CCC(N)=O)C(=O)N[C@@H](CCCCNC(=N)N)C(=O)N1CCC[C@H]1C(=O)N[C@H](CCCNC(=N)N)C(=O)N(C)[C@@H](CC(C)C)C(=O)N[C@@H](CO)C(=O)N[C@@H](Cc1c[nH]cn1)C(=O)N[C@@H](CCCCN)C(=O)NCC(=O)N1[C@H](C(=O)N[C@@H](Cc2ccc(I)cc2)C(=O)N2CCC[C@H]2C(=O)N[C@H](Cc2ccc(-c3ccccc3)cc2)C(=O)O)C[C@@H]2CCCC[C@@H]21)C(=O)O | 8 h | 0.074 L/kg | > 90% | 6.3 h | 0.07 nM | 4.39 nM | 66% | 0.0021 | 0.404 µM·h | 84% | 24% | 650 mL/min/kg | 1.84 h | 1.35 mL/min/kg | 0.426 µM·h |
| CC(=O)N[C@@H](CCCCNC(=N)N)C(=O)N[C@H](CCCNC(=N)N)C(=O)N[C@@H](CCC(N)=O)C(=O)N[C@@H](CCCCNC(=N)N)C(=O)N1CCC[C@H]1C(=O)N[C@H](CCCNC(=N)N)C(=O)N(C)[C@@H](CC(C)C)C(=O)N[C@@H](CO)C(=O)N[C@@H](Cc1c[nH]cn1)C(=O)N[C@@H](CCCCN)C(=O)NCC(=O)N1[C@H](C(=O)N[C@@H](Cc2ccc(I)cc2)C(=O)N2CCC[C@H]2C(=O)N[C@H](Cc2ccc(-c3ccccc3)cc2)C(=O)O)C[C@@H]2CCCC[C@@H]21 | – | 0.298 L/kg | 86% | – | – | 1.95 nM | 41% | 0.179 | – | 45% | – | 56.2 mL/min/kg | 0.362 h | 10.1 mL/min/kg | 0.073 µM·h |
| CC(C)C[C@@H](C(=O)N[C@@H](CO)C(=O)N[C@@H](Cc1c[nH]cn1)C(=O)N[C@@H](CCCCN)C(=O)NCC(=O)N1[C@H](C(=O)N[C@@H](Cc2ccc(I)cc2)C(=O)N2CCC[C@H]2C(=O)N[C@H](Cc2ccc(-c3ccccc3)cc2)C(=O)O)C[C@@H]2CCCC[C@@H]21)N(C)C(=O)[C@@H](CCCNC(=N)N)NC(=O)[C@@H]1CCCN1C(=O)[C@H](CCCCNC(=N)N)NC(=O)[C@H](CCC(N)=O)NC(=O)[C@@H](CCCNC(=N)N)NC(=O)[C@H](CCCCNC(=N)N)NC(=O)COCCOCCNC(=O)COCCOCCNC(=O)CC[C@H](NC(=O)CCCCC(=O)O)C(=O)O | 4.7 h | 0.139 L/kg | > 90% | 4.1 h | 1.2 nM | 4.1 nM | 15% | 0.0061 | 1.98 µM·h | 76% | 58% | 152 mL/min/kg | 2.32 h | 0.92 mL/min/kg | 0.682 µM·h |
